The source of these data is ChEMBL document CHEMBL1138338, “Design, synthesis, and structure-activity relationships of a novel series of 5-alkylidenepyridazin-3(2H)-ones with a non-cAMP-based antiplatelet activity” (J Med Chem, 2007).

Structures are written as SMILES. Calls of active or inactive are those of the source. No cut-off for these calls is given here.

One may read the IC50 as the concentration that gives 50% inhibition. Low readings indicate greater potency in that assay, high ones weaker potency in that assay.

Test system in the first assay: not listed separately
Nature of the assay: (§1) Inhibition of thrombin-induced platelet aggregation in human platelets after 5 mins by turbidimetric method. In kind it is functional, cell-based.
For the compound `N#C/C=C/c1cnn(Cc2ccccc2)c(=O)c1`, the concentration for half-maximal inhibition (IC50) turned out to be 221 µM.

As to `Cn1ncc(C=C(C(=O)OCc2ccccc2)C(=O)OCc2ccccc2)cc1=O`, half-maximal inhibition (IC50) required 1.64 µM.

In the case of `CC(C)OC(=O)C(=Cc1cnn(C)c(=O)c1)C(=O)OC(C)C`, the half-inhibitory concentration (IC50) is 13.3 µM.

On to `CCOC(=O)C(=Cc1cnn(Cc2ccccc2)c(=O)c1)C(=O)OCC`, for which the half-maximal inhibitory concentration (IC50) was 3.62 µM.

The compound `O=C(/C=C/c1cnn(Cc2ccccc2)c(=O)c1)c1ccccc1` displayed an IC50 of 170 µM.

In the case of `O=C1C(CC[S+]([O-])c2ccccc2)C(=O)N(c2ccccc2)N1c1ccccc1` (configuration not stated) [SULFINPYRAZONE], the midpoint of inhibition, the IC50, lay at 509 µM.

In turn, `COC(=O)C(=Cc1cc(=O)[nH]nc1-c1ccccc1)C(=O)OC` had an IC50 of 45 µM.

As for `Cn1nc(-c2ccccc2)c(C=C(C(=O)OC(C)(C)C)C(=O)OC(C)(C)C)cc1=O`, the IC50 turned out to be 45 µM.

Turning to `Cn1ncc(C=C(C#N)C#N)cc1=O`, the half-inhibitory concentration (IC50) came to 475 µM.

For `CC(C)(C)OC(=O)C(=Cc1cnn(Cc2ccccc2)c(=O)c1)C(=O)OC(C)(C)C`, 6.25 µM corresponded to half-maximal inhibition (IC50).

For the compound `N#CC(C#N)=Cc1cnn(Cc2ccccc2)c(=O)c1`, the IC50 was found to be 126 µM.

Compound `CCOC(=O)C(=Cc1cc(=O)[nH]nc1-c1ccccc1)C(=O)OCC` gave an IC50 of 20 µM.

Regarding `CC(C)OC(=O)C(=Cc1cc(=O)[nH]nc1-c1ccccc1)C(=O)OC(C)C`, the IC50 came to 17.5 µM.

Compound `COC(=O)C(=Cc1cn[nH]c(=O)c1)C(=O)OC` came in with an IC50 of 40.2 µM.

Regarding `O=C(OCc1ccccc1)C(=Cc1cnn(Cc2ccccc2)c(=O)c1)C(=O)OCc1ccccc1`, it took 1.36 µM to reach half-maximal inhibition (IC50).

`O=C(OCc1ccccc1)C(=Cc1cn[nH]c(=O)c1)C(=O)OCc1ccccc1`: half-maximal inhibition (IC50) was put at 3.58 µM.

With `COC(=O)C(=Cc1cc(=O)n(C)nc1-c1ccccc1)C(=O)OC`, 9.2 µM corresponded to half-maximal inhibition (IC50).

Compound `O=C(/C=C/c1cc(=O)[nH]nc1-c1ccccc1)c1ccccc1` displayed a half-maximal inhibitory concentration (IC50) of 142 µM.

Compound `Cn1ncc(C=C(C(=O)OC(C)(C)C)C(=O)OC(C)(C)C)cc1=O` yielded an IC50 of 95 µM.

Consider `O=C(OCc1ccccc1)C(=Cc1cc(=O)[nH]nc1-c1ccccc1)C(=O)OCc1ccccc1`, for which the IC50 turned out to be 1.8 µM.

Take `Cc1[nH]c(=O)c(C#N)cc1-c1ccncc1` [MILRINONE]: the 50% inhibitory concentration (IC50) was 4.7 µM.

The compound `CCOC(=O)C(=Cc1cn[nH]c(=O)c1)C(=O)OCC` came in with an IC50 of 8.7 µM.

In turn, `Cn1nc(-c2ccccc2)c(C=C(C(=O)OCc2ccccc2)C(=O)OCc2ccccc2)cc1=O` gave an IC50 of 1.4 µM.

`CC(C)(C)OC(=O)C(=Cc1cc(=O)[nH]nc1-c1ccccc1)C(=O)OC(C)(C)C`: the IC50 is 7.5 µM.

`CC(C)OC(=O)C(=Cc1cnn(Cc2ccccc2)c(=O)c1)C(=O)OC(C)C` came in with a 50% inhibitory concentration (IC50) of 2.9 µM.

In the case of `CC(C)OC(=O)C(=Cc1cc(=O)n(C)nc1-c1ccccc1)C(=O)OC(C)C`, the IC50 turned out to be 4.1 µM.

Regarding `CCOC(=O)C(=Cc1cc(=O)n(C)nc1-c1ccccc1)C(=O)OCC`, half-maximal inhibition (IC50) required 17 µM.

The compound `CCOC(=O)C(=Cc1cnn(C)c(=O)c1)C(=O)OCC` returned an IC50 of 12.3 µM.

`COC(=O)C(=Cc1cnn(Cc2ccccc2)c(=O)c1)C(=O)OC` yielded an IC50 of 4.86 µM.

In the case of `COC(=O)C(=Cc1cnn(C)c(=O)c1)C(=O)OC`, the IC50 was determined as 15.6 µM.

The test system of a further assay is Platelet. The assay is described as §1. In kind it is functional, cell-based.
For `COCn1nc(-c2ccccc2)c(/C=C/C(=O)OC)cc1=O`, the result was inactive.

Take `COC(=O)C(=Cc1cc(=O)[nH]nc1-c1ccccc1)C(=O)OC`: the Activity result was “Dose-dependent effect”.

As to `CC(C)OC(=O)C(=Cc1cc(=O)[nH]nc1-c1ccccc1)C(=O)OC(C)C`, the Activity entry is “Dose-dependent effect”.

Consider `O=C(OCc1ccccc1)C(=Cc1cnn(Cc2ccccc2)c(=O)c1)C(=O)OCc1ccccc1`, for which the Activity entry is “Dose-dependent effect”.

Test system in a further assay: not listed separately
Nature of the assay: Inhibition of PDE3 in guinea pig ventricle. Also on record: species or system Cavia porcellus.
For `COC(=O)C(=Cc1cc(=O)[nH]nc1-c1ccccc1)C(=O)OC`, inhibition was half-maximal at 2000 µM (IC50).

Consider `CCOC(=O)C(=Cc1cc(=O)[nH]nc1-c1ccccc1)C(=O)OCC`, for which the midpoint of inhibition, the IC50, lay at 2000 µM.

`COC(=O)C(=Cc1cc(=O)n(C)nc1-c1ccccc1)C(=O)OC` registered an IC50 of 2000 µM.
